Data as given in patent publication US7910574B2, “Treatments for the control of schistosomiasis” (Illinois State University, priority 2007, dated 2011).

Columns and labels:
adult S. mansoni worms [1] = test system: adult S. mansoni worms
[2] = test system: murine myeloma cell line SP2/0; assay: Cytotoxicity assay (sulforhodamine B); format: cell-based
Description: To examine if furoxan is tolerated by mammalian cells, we incubated the murine myeloma cell line SP2/0 with the drugs at given concentrations and monitored cell viability at 24 hr and 120 hr. At 120 hr in 2 μM furoxan ˜25% mortality of myeloma cells was observed compared to 100% mortality of adult S. mansoni worms at the same concentration. Myeloma cells tolerated furoxan at concentrations as high as 100 μM. Differential cytotoxicity of furoxan on the worm survival and myeloma cells were also seen after 24 hrs of drug application.
Cytotoxicity assays were performed using sulforhodamine B to determine cellular protein content. Murine myeloma cell line SP2/0 was cultured in 96-well microtiter plates containing 0.2 ml of RPMI-1640 per well at a cell density of 900 per well at 37° C. in 5% CO2. Cells were treated with drug concentrations (or drug carrier alone) for times as indicated. After treatment, cells were fixed with 10% TCA at 4° C. for 1 hr. Fixed cells were rinsed to remove fixative and then stained in 0.4% (wt/vol) sulforhodamine B (Sigma) in 1% acetic acid for 35 min. After washing with 1% acetic acid and dye extraction in 10 mM Tris (pH 10.5), plates were read at A564 nm. The A564 nm of drug-treated cells was compared to carrier-only-treated cells.

adult S. mansoni worms [3] = assay: microbe, parasite or virus in culture; conditions: Schistosoma mansoni
TGR = TGR (Schistosoma mansoni, UniProt Q962Y6); assay: Mode of TGR inhibition; conditions: through release of NO
[4] = target: parasite TGR (thioredoxin reductase activity) (Schistosoma mansoni, UniProt Q962Y6); assay: Thioredoxin reductase activity of TGR in homogenates of treated cultured worms; conditions: 10 μM, 18 hrs treatment of cultured worms
Description: (§1) Freshly perfused adult S. mansoni worms were cultured with 10 μM furoxan or 50 μM NBPPTA. […] The activity of lactate dehydrogenase was monitored as a control enzyme.
(§2) Enzyme assays were performed at 25° C. in 0.1 M potassium phosphate, pH 7.4, 10 mM EDTA. Thioredoxin reductase activity of TGR was determined using either 3 mM 5,5′ dithiobis(2-nitrobenzoic acid) (DTNB, Ellman's reagent) or 16 μM recombinant S. mansoni thioredoxin-1 (Alger et al 2002). One enzyme unit was defined as the NADPH-dependent production of 2 μmol of 2-nitro-5-thiobenzoic acid per minute using ε412 nm=13.6 mM^−1 cm^−1 or the consumption of 1 μmol of NADPH (ε340 nm=6.22 mM^−1 cm^−1) during the first three minutes. Glutathione reductase activity was determined with 100 μM GSH disulfide and 100 μM NADPH by measuring the decrease in A340 nm due to consumption of NADPH (ε340 nm=6.22 mM^−1 cm^−1) during the first three minutes. Activity of the control enzyme lactate dehydrogenase (LDH) was determined with 10 μM sodium pyruvate and 100 μM NADPH. Each assay was done in triplicate and each experiment was repeated three times.
(§3) Compounds were dissolved in dimethylsulfoxide (DMSO) and added at concentrations indicated to freshly perfused worms in RPMI1640 containing 25 mM Hepes, pH 7, 150 units/ml penicillin, 125 μg/ml streptomycin, and 10% fetal calf serum (Cell Grow, Fisher). […]

[5] = target: recombinant S. mansoni TGR (Schistosoma mansoni, UniProt Q962Y6); assay: NO release with recombinant SmTGR (ABTS oxidation); format: biochemical; conditions: 10 μM oxadiazole, 15 nM SmTGR, P<0.05
Description: Because oxadiazoles are known to release nitric oxide (NO) at physiological levels of thiols, we examined if NO release played a part in their mechanism of action (TGR inhibition and worm killing). […] The NO releasing capability of oxadiazoles was next tested with recombinant S. mansoni TGR enzyme with and without NADPH.
NO release by different oxadiazoles was determined by 2,2′-azino-bis(3-ethylbenzthiazoline-6-sulphonic acid) [ABTS, Sigma] oxidation method [Nims et al, Methods 7, 48-54; 1995]. Different oxadiazoles at 10 μM were incubated at RT for 50 minutes with 15 nM recombinant SmTGR in the presence or absence of 100 μM NADPH. The (oxadiazole+SmTGR/±NADPH) mixture was then added to an aerobic PBS, pH 7.4, containing 5 mM ABTS. The absorbance of the resulting green ABTS^+ were measured at A660. A conversion factor was calculated to adjust the readings from 1 ml reaction to 96-well plate. The concentrations of the released NO were calculated as a percentage of the added oxadiazoles. Each reaction was done in triplicate and the data is the average of three independent experiments. […] The slope of the regression line was calculated and used to recalculate the data at A660 in 200 μl reaction [Nims et al, Methods 7, 48-54; 1995].

[6] = 10 mg/kg once a day, 5 days, ip; cited from earlier work
S. mansoni infected mice = assay: In vivo drug treatment of S. mansoni infected mice; design: species or system Schistosoma mansoni; conditions: for decrease in worm burden vs control infected mice: perfusion day 49
[7] = target: parasite TGR (GSH reductase activity) (Schistosoma mansoni, UniProt Q962Y6); assay: Glutathione reductase activity of TGR in homogenates of treated cultured worms; conditions: 10 μM, 18 hrs treatment of cultured worms
Description: as §1, §2, §3

[8] = test system: parasite lactate dehydrogenase; assay: Lactate dehydrogenase control enzyme activity in homogenates of treated worms; format: cell-based, Schistosoma mansoni; conditions: 10 μM, treated worm homogenates
[9] = test system: S. mansoni infections in mice; conditions: juvenile liver parasites targeted, mouse model; cited from earlier work

recombinant S. mansoni TGR, sequence (Q962Y6 1-598): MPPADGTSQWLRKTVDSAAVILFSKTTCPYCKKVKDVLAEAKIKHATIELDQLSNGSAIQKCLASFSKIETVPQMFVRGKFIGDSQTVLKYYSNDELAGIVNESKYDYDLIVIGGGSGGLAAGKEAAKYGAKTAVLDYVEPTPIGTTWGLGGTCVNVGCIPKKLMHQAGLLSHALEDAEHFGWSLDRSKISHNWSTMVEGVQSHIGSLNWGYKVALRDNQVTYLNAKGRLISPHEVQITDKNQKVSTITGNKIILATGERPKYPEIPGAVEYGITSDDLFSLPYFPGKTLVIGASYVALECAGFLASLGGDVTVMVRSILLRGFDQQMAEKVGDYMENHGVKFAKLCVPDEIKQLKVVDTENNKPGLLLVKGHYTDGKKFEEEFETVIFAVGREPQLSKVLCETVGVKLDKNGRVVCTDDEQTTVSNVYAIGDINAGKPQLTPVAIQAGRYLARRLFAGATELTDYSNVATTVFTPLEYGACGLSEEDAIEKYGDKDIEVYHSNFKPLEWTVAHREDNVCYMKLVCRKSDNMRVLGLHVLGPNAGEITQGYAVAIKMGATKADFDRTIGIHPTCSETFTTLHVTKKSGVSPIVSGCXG
parasite TGR (GSH reductase activity), sequence (Q962Y6 1-598): as above
TGR, sequence (Q962Y6 1-598): as above
parasite TGR (thioredoxin reductase activity), sequence (Q962Y6 1-598): as above

With `N#Cc1c(-c2ccccc2)no[n+]1[O-]` [Analogue 9] the “activity against adult parasites” value (adult S. mansoni worms [1]; 0.38 μg/ml, longer times) was “active”, the “time to kill worms” value (adult S. mansoni worms [1]; 2 μM) was 120 h and the “worm viability with NO scavenger” value (adult S. mansoni worms [1]; 10 μM furoxan with 100 μM carboxy-PTIO) was “extended”. For the same compound, the parasite death (adult S. mansoni worms [1]; 10 μM, within 24 hr, axenically cultured adult worms) was 100%, the “concentration tolerated by myeloma cells” value [2] was ≤ 100 µM and the “mortality of myeloma cells” value ([2]; 2 μM, 120 hr) was ~25%. The inhibition at 1.87 µg/mL (adult S. mansoni worms [3]; 24 h, read-out: inhibition of motility of adult parasites) was 100%, the mortality at 2 µM (adult S. mansoni worms [3]; 120 h, read-out: mortality of adult S. mansoni worms) was 100% and the “mode of inhibition of TGR” value (TGR) was “time-dependent irreversible inhibition”. The “reduction of thioredoxin reductase activity of parasite TGR vs carrier control” value [4] was 83%, the “NO release relative to the other oxadiazoles tested” value ([5]; +NADPH) was 10 × and the “NO release relative to the other oxadiazoles tested” value ([5]; −NADPH) was 3 ×. For the same compound, the tolerability in mice [6] was “well tolerated”, the “reduction in worm burdens, all trials in mice” value (S. mansoni infected mice; 10 mg/kg, regardless of lifecycle stage) was ≥ 89% and the adult parasites recovered (S. mansoni infected mice; early stage treatment (treatment 1), total from the eight mice infected) was “one”. For the same compound, the liver egg granulomas (S. mansoni infected mice; treatment 1 (skin stage)) was “no signs of egg granulomas”, the “hepatomegaly vs control infected mice” value (S. mansoni infected mice; treatment 1 (skin stage), P<0.0001) was “reduction of hepatomegaly” and the “decrease in worm burden vs control infected mice” value (shortened to “decrease in worm burden”) (S. mansoni infected mice; treatment 1: 10 mg/kg ip once daily x5 from day 1 after infection (skin stage)) was > 99%. For the same compound, the “number of liver granulomas vs control infections” value (S. mansoni infected mice; treatment 2 (juvenile liver stage)) was “considerably reduced”, the “hepato- and splenomegaly vs control infected mice” value (S. mansoni infected mice; treatment 2 (juvenile liver stage), P<0.0001) was “dramatic reductions in hepato- and splenomegaly” and the “decrease in worm burden” value (S. mansoni infected mice; treatment 2: 10 mg/kg ip once daily x5 from day 23 (juvenile liver stage)) was 89%. The “egg-induced liver granulomas vs control group” value (S. mansoni infected mice; treatment 3 (adult stage)) was “greatly reduced number”, the “hepatomegaly vs control group” value (S. mansoni infected mice; treatment 3 (adult stage), P<0.0001) was “dramatic reduction in hepatomegaly” and the “decrease in worm burden” value (S. mansoni infected mice; treatment 3: 10 mg/kg ip once daily x5 from day 37 (adult egg laying)) was 94%. For the same compound, the “reduction of GSH reductase activity of parasite TGR vs carrier control” value [7] was 93% and the “activity of parasite lactate dehydrogenase vs carrier only treated worms” value [8] was “no significant change”.

For `O=C(C1CCCCC1)N1CC(=O)N2CCc3ccccc3C2C1` (stereo not drawn) [PZQ, praziquantel], the “reduction in worm burdens” value [9] is given as 25-30%.
